What is called MIC80 is an inhibitory concentration at the 80% level, which refers to growth in some studies and to a panel of isolates in others.

In brackets after ≈: the same amount, converted by molar mass. Some results are limits rather than exact numbers.

In this assay the test system is Mycobacterium tuberculosis. The assay is described as follows: Antibacterial activity against Mycobacterium tuberculosis H37Rv ATCC 27294 after 5 days by microdilution method. Format: functional. The following applies: H37Rv ATCC 27294, 120 h. (In broth dilution the organism is exposed to a series of concentrations in liquid medium.)
The molecule `COc1ncnc(Cn2cc(C(=O)NCCF)c3ncccc32)c1C` gave an MIC80 of 1.56 µM (≈ 0.536 µg/mL). The value for `COc1ncnc(Cn2cc(C(=O)NC[C@@H](C)O)c3ncc(C)cc32)c1C` was 6.52 µM (≈ 2.41 µg/mL); that for `COc1cnc2c(C(=O)NCC(F)F)cn(Cc3ncnc(OC)c3C)c2c1` was under 0.39 µM.

`COc1ncnc(Cn2cc(C(=O)NCCO)c3ncc(C)cc32)c1C` [TBA-7371] returned an MIC80 of 1.56 µM (≈ 0.554 µg/mL). Consider `COc1ncnc(Cn2cc(C(=O)NCCF)c3ncc(Br)cc32)c1C`, for which the MIC80 was determined as 0.781 µM (≈ 0.33 µg/mL). The value for `CC(c1c(F)cccc1F)n1cc(C(=O)NCCF)c2ncccc21` (stereo unspecified) was 12.5 µM (≈ 4.34 µg/mL).

For the origin of these results see ChEMBL document CHEMBL3576794, “Decaprenylphosphoryl-β-d-ribose 2'-Epimerase 1 (DprE1): A Novel Therapeutic Target for the Treatment of Tuberculosis” (2015).
